From US20250230193A1, “CYCLIC COMPOUND HAVING SELECTIVE KRAS INHIBITORY EFFECT ON HRAS AND NRAS” (CHUGAI SEIYAKU KABUSHIKI KAISHA, priority 2022, published 2025)
Where a SMILES comes first, the peptide text is derived from it. Bridges are numbered along the chain shown (N, C = ends). [ ]: non-standard residue; d: D form. The star is where a group is joined. hPhe(3-Cl-4-CF3) = N[C@@H](CCc1ccc(C(F)(F)F)c(Cl)c1)C(=O)O; NMePhe(4-Me) = CN[C@@H](Cc1ccc(C)cc1)C(=O)O; NMeGly(cPent) = CN[C@H](C(=O)O)C1CCCC1; NMeD = CN[C@@H](CC(=O)O)C(=O)O; NMeL = CN[C@@H](CC(C)C)C(=O)O; Morpholide = C1CN(*)CCO1; Ac5c = NC1(C(=O)O)CCCC1; NPrGly = CCCNCC(=O)O; Sar = CNCC(=O)O

Experiments:
[1] = target: GDP-bound HRAS wild-type protein (Homo sapiens, UniProt P01112); experiment: Binding to HRAS by surface plasmon resonance (SPR), Single Cycle Kinetics
Chain of GDP-bound HRAS wild-type protein (P01112 whole entry): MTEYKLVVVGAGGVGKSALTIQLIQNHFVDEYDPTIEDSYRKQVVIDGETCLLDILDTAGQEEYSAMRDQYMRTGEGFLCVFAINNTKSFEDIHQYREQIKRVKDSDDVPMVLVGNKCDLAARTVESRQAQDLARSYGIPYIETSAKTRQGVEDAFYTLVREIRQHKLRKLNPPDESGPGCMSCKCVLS

[2] = target: GDP-bound NRAS wild-type protein (Homo sapiens, UniProt P01111); experiment: Binding to NRAS by surface plasmon resonance (SPR), Single Cycle Kinetics
Chain of GDP-bound NRAS wild-type protein (P01111 whole entry): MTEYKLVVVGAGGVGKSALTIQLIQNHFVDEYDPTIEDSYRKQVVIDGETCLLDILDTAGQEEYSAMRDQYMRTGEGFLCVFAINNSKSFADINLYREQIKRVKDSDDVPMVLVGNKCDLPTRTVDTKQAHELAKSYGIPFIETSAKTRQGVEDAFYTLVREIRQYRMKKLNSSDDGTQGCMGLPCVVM

[3] = SPR, GDP-bound HRAS wild-type vs GDP-bound KRAS wild-type
[4] = SPR, GDP-bound NRAS wild-type vs GDP-bound KRAS wild-type

Compound: CCCN1CC(=O)N(C)[C@@H](Cc2ccc(C)cc2)C(=O)N(C)CC(=O)N[C@@H](CCc2ccc(C(F)(F)F)c(Cl)c2)C(=O)N2CCC[C@H]2C(=O)NC2(CCCC2)C(=O)N(C)[C@@H](C2CCCC2)C(=O)N(C)[C@H](C(=O)N2CCOCC2)CC(=O)N(C)[C@@H](CC(C)C)C(=O)N[C@@H]([C@@H](C)CC)C(=O)N(C)CC1=O [PP0020] ([NMeL]I[Sar][NPrGly][NMePhe(4-Me)][Sar][hPhe(3-Cl-4-CF3)]P[Ac5c][NMeGly(cPent)][NMeD]-Morpholide; lactam N-11)
- HRAS/KRAS (ratio of KD for GDP-bound HRAS wild-type to KD for KRAS) ([1]; KD ratio HRAS/KRAS, SPR): C (A compound having a KD ratio of 0.1 or more and less than 3 is denoted as C)
- NRAS/KRAS (ratio of KD for GDP-bound NRAS wild-type to KD for KRAS) ([2]; KD ratio NRAS/KRAS, SPR): C (A compound having a KD ratio of 0.1 or more and less than 3 is denoted as C)

Compound: CCO[C@@H]1C[C@H]2C(=O)NC3(CCC3)C(=O)N(C)[C@@H](C3CCCC3)C(=O)N(C)[C@H](C(=O)N(C)C)CC(=O)N(C)[C@@H](CC3CCCC3)C(=O)N[C@@H]([C@@H](C)CC)C(=O)N(C)CC(=O)N(C)[C@H]3C/C=C\CCN(C3=O)[C@@H](Cc3ccc(C)cc3)C(=O)N(C)CC(=O)N[C@@H](CCc3ccc(C4CC4)c(F)c3)C(=O)N2C1 [PP2683]
- HRAS/KRAS (ratio of KD value with respect to GDP-bound HRAS wild-type protein to KD value with respect to KRAS) ([1]; KD ratio HRAS/KRAS, class symbols): A (a compound having 10 or more and less than 20 is denoted as A)
- NRAS/KRAS (ratio of KD value with respect to GDP-bound NRAS wild-type protein to KD value with respect to KRAS) ([2]; KD ratio NRAS/KRAS, class symbols): A (a compound having 10 or more and less than 20 is denoted as A)

Compound: CCO[C@@H]1C[C@H]2C(=O)NC3(CC(C)(C)C3)C(=O)N(C)[C@@H](C(CC)CC)C(=O)N(C)[C@H](C(=O)N(C)C)CC(=O)N(C)[C@@H](CC)C(=O)N[C@@H]([C@@H](C)CC)C(=O)N(C)CC(=O)N(C)[C@H]3C/C=C\CCN(C3=O)[C@@H](Cc3ccc(C(F)(F)F)cc3)C(=O)N(C)CC(=O)N[C@@H](CCc3cc(F)c(C(F)(F)F)c(F)c3)C(=O)N2C1 [PP2062]
- HRAS/KRAS (ratio of KD value with respect to HRAS to KD value with respect to KRAS) [1, 3]: A (a compound having 10 or more and less than 20 is denoted as A)
- NRAS/KRAS (ratio of KD value with respect to NRAS to KD value with respect to KRAS) [2, 4]: AA (a compound having 20 or more is denoted as AA)

Compound: CCC[C@H]1C(=O)N[C@@H]([C@@H](C)CC)C(=O)N(C)CC(=O)N(C)[C@H]2C/C=C\CCN(C2=O)[C@@H](CC2CCCCC2)C(=O)N(C)CC(=O)N[C@@H](CCc2ccc(C(F)(F)F)c(OC)c2)C(=O)N2C[C@@H](C)C[C@H]2C(=O)N(C)C2(CCC2)C(=O)N(C)[C@@H](C2CCCC2)C(=O)N(C)[C@H](C(=O)N(C)C)CC(=O)N1C [PP2370]
- HRAS/KRAS (ratio of KD value with respect to HRAS to KD value with respect to KRAS) [1, 3]: B (a compound having 3 or more and less than 10 is denoted as B)
- NRAS/KRAS (ratio of KD value with respect to NRAS to KD value with respect to KRAS) [2, 4]: B (a compound having 3 or more and less than 10 is denoted as B)

Compound: CCCN(C)C(=O)[C@@H]1CC(=O)N(C)[C@@H](C)C(=O)N[C@@H]([C@@H](C)CC)C(=O)N(C)CC(=O)N(C)[C@H]2C/C=C\CCN(C2=O)[C@@H](Cc2ccc(C(F)(F)F)cc2)C(=O)N(C)CC(=O)N[C@@H](CCc2cc(F)c(C(F)(F)F)c(F)c2)C(=O)N2C[C@H](OCC)C[C@H]2C(=O)NC2(CC(F)(F)C2)C(=O)N(C)[C@@H](C2CCCC2)C(=O)N1C [PP1731]
- HRAS/KRAS (ratio of KD value for HRAS to KD value for KRAS) ([1]; KD ratio, GDP-bound HRAS wild-type vs GDP-bound KRAS wild-type, SPR): A (a compound having 10 or more and less than 20 is denoted as A)
- NRAS/KRAS (ratio of KD value for NRAS to KD value for KRAS) ([2]; KD ratio, GDP-bound NRAS wild-type vs GDP-bound KRAS wild-type, SPR): A (a compound having 10 or more and less than 20 is denoted as A)

Compound: CC[C@H](C)[C@@H]1NC(=O)[C@@H]2CCC/C=C/c3ccc(cc3)C[C@@H](C(=O)N(C)CC(=O)N[C@@H](CCc3ccc(Cl)c(Cl)c3)C(=O)N3C[C@H](OC4CCC4)C[C@H]3C(=O)NC3(CC(C)(C)C3)C(=O)N(C)[C@@H](C3CCCC3)C(=O)N(C)[C@H](C(=O)N(C)CC)CC(=O)N2C)N2CC/C=C\C[C@@H](C2=O)N(C)C(=O)CN(C)C1=O [PP3058]
- HRAS/KRAS (ratio of KD value with respect to GDP-bound HRAS wild-type protein to KD value with respect to KRAS) ([1]; KD ratio HRAS/KRAS, SPR, GDP-bound wild-type proteins): A (a compound having 10 or more and less than 20 is denoted as A)
- NRAS/KRAS (ratio of KD value with respect to GDP-bound NRAS wild-type protein to KD value with respect to KRAS) ([2]; KD ratio NRAS/KRAS, SPR, GDP-bound wild-type proteins): A (a compound having 10 or more and less than 20 is denoted as A)

Compound: CC[C@H](C)[C@@H]1NC(=O)[C@H](CC(C)C)N(C)C(=O)C[C@@H](C(=O)N2CCOCC2)N(C)C(=O)[C@H](C2CCCC2)N(C)C(=O)C2(CCCC2)NC(=O)[C@@H]2CC(F)(F)CN2C(=O)[C@H](CCc2cc(F)c(C(F)(F)F)c(F)c2)NC(=O)CN(C)C(=O)[C@H](Cc2ccc(C(F)(F)F)cc2)N2CCCCC[C@@H](C2=O)N(C)C(=O)CN(C)C1=O [PP0491]
- HRAS/KRAS (ratio of KD value with respect to GDP-bound HRAS wild-type protein to KD value with respect to KRAS) ([1]; KD ratio HRAS/KRAS, SPR): B (a compound having 3 or more and less than 10 is denoted as B)
- NRAS/KRAS (ratio of KD value with respect to GDP-bound NRAS wild-type protein to KD value with respect to KRAS) ([2]; KD ratio NRAS/KRAS, SPR): B (a compound having 3 or more and less than 10 is denoted as B)
